Key:
Experiment in all cases: KinaseProfiler kinase assay
Assay type in all cases: biochemical
Pim-3(h) = Pim-3(h) (Homo sapiens, UniProt Q86V86)
How it was run: (§1)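 Kinase activity is followed by incorporation of 33P from [γ-33P]ATP in 8 mM MOPS pH 7.0 with 10 mM Mg acetate and 0.2 mM EDTA over 40 min at room temperature. Inhibition is scaled between no-kinase and phosphopeptide control wells.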

Fms(h) = Fms(h) (Homo sapiens, UniProt P07333)
How it was run: as §1

IKKβ(h) = IKKβ(h) (Homo sapiens, UniProt O14920)
How it was run: as §1

Met(Y1248C)(h) = Met(Y1248C)(h) (Homo sapiens, UniProt P08581, Y1230C)
How it was run: as §1

Bmx(h) = Bmx(h) (Homo sapiens, UniProt P51813)
Chain of Bmx(h) (P51813 whole entry): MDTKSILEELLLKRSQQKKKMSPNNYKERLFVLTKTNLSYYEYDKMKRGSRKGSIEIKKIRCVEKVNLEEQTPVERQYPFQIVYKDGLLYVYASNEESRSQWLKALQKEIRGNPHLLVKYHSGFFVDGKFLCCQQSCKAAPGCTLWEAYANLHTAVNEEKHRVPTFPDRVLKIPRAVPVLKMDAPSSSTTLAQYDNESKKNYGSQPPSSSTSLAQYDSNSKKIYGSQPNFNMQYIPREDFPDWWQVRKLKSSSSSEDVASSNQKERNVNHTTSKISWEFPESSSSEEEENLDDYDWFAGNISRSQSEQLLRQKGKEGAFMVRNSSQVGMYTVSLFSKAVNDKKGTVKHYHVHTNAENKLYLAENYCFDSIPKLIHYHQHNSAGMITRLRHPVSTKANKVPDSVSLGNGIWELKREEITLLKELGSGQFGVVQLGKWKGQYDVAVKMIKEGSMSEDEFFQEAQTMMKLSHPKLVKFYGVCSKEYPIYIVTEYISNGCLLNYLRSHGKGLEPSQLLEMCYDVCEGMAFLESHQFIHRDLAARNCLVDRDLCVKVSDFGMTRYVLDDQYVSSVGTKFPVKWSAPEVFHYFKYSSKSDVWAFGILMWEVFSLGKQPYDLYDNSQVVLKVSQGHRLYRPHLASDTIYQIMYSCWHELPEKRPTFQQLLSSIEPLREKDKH
How it was run: as §1

CHK1(h) = CHK1(h) (Homo sapiens, UniProt O14757)
How it was run: as §1

EphA2(h) = EphA2(h) (Homo sapiens, UniProt P29317)
How it was run: as §1

Aurora-B(h) = Aurora-B(h) (Homo sapiens, UniProt Q96GD4)
Chain of Aurora-B(h) (Q96GD4 whole entry): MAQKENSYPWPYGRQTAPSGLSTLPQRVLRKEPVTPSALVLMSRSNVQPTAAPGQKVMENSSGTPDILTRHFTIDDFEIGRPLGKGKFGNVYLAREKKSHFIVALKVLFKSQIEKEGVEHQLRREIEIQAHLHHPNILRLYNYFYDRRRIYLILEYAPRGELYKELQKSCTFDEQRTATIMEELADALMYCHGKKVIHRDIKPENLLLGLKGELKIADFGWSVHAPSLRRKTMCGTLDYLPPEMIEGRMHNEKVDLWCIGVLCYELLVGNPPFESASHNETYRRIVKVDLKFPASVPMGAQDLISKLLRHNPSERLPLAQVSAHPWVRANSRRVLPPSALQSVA
How it was run: as §1

ASK1(h) = ASK1(h) (Homo sapiens, UniProt Q99683)
How it was run: as §1

WNK2(h) = WNK2(h) (Homo sapiens, UniProt Q9Y3S1)
How it was run: as §1

PKCε(h) = PKCε(h) (Homo sapiens, UniProt Q02156)
Chain of PKCε(h) (Q02156 whole entry): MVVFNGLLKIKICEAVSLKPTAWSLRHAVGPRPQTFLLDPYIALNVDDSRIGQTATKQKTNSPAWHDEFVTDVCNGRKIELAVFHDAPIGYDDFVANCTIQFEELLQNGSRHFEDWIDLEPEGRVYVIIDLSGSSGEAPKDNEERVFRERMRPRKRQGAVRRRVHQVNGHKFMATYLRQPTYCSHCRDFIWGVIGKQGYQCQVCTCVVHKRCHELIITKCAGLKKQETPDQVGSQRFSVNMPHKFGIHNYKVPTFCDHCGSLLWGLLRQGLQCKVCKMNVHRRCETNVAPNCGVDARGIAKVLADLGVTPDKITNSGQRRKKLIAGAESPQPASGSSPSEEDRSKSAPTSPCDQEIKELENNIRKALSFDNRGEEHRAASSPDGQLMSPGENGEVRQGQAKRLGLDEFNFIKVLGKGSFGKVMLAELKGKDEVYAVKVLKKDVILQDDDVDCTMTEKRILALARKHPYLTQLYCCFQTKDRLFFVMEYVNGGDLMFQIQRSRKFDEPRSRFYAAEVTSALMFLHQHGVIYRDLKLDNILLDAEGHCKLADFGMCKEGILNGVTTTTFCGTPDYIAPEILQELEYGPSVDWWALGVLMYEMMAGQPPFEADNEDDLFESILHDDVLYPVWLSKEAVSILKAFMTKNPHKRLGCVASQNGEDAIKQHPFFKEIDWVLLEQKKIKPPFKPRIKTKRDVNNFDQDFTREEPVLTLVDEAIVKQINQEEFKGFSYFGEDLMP
How it was run: as §1

MST1(h) = MST1(h) (Homo sapiens, UniProt Q13043)
Chain of MST1(h) (Q13043 whole entry): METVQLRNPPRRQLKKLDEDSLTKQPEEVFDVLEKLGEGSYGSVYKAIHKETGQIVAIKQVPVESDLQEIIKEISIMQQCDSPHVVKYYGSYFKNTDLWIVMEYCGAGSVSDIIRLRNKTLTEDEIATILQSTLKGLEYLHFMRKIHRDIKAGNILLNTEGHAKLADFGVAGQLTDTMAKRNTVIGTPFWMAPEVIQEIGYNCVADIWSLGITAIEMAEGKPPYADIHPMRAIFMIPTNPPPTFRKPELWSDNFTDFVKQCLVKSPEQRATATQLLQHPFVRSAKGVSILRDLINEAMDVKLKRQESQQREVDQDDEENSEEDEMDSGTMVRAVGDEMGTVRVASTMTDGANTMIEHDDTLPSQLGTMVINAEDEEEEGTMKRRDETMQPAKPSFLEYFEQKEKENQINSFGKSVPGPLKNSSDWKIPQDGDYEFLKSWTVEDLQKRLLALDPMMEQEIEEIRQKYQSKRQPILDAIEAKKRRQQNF
How it was run: as §1

DAPK1(h) = DAPK1(h) (Homo sapiens, UniProt P53355)
How it was run: as §1

MAPK2(m) = MAPK2(m) (Mus musculus, UniProt P63085)
How it was run: as §1

Fms(Y969C)(h) = Fms(Y969C)(h) (Homo sapiens, UniProt P07333, Y969C)
How it was run: as §1

ZIPK(h) = ZIPK(h) (Homo sapiens, UniProt O43293)
How it was run: as §1

Aurora-C(h) = Aurora-C(h) (Homo sapiens, UniProt Q9UQB9)
How it was run: as §1

PKCβI(h) = PKCβI(h) (Homo sapiens, UniProt P05771)
How it was run: as §1

PKCμ(h) = PKCμ(h) (Homo sapiens, UniProt Q15139)
How it was run: as §1

EGFR(L861Q)(h) = EGFR(L861Q)(h) (Homo sapiens, UniProt P00533, L861Q)
How it was run: as §1

DCAMKL2(h) = DCAMKL2(h) (Homo sapiens, UniProt Q8N568)
How it was run: as §1

FGFR2(N549H)(h) = FGFR2(N549H)(h) (Homo sapiens, UniProt P21802, N549H)
How it was run: as §1

IKKα(h) = IKKα(h) (Homo sapiens, UniProt O15111)
How it was run: as §1

Ron(h) = Ron(h) (Homo sapiens, UniProt Q04912)
How it was run: as §1

GRK6(h) = GRK6(h) (Homo sapiens, UniProt P43250)
How it was run: as §1

Ros(h) = Ros(h) (Homo sapiens, UniProt P08922)
Chain of Ros(h) (P08922 28-2347): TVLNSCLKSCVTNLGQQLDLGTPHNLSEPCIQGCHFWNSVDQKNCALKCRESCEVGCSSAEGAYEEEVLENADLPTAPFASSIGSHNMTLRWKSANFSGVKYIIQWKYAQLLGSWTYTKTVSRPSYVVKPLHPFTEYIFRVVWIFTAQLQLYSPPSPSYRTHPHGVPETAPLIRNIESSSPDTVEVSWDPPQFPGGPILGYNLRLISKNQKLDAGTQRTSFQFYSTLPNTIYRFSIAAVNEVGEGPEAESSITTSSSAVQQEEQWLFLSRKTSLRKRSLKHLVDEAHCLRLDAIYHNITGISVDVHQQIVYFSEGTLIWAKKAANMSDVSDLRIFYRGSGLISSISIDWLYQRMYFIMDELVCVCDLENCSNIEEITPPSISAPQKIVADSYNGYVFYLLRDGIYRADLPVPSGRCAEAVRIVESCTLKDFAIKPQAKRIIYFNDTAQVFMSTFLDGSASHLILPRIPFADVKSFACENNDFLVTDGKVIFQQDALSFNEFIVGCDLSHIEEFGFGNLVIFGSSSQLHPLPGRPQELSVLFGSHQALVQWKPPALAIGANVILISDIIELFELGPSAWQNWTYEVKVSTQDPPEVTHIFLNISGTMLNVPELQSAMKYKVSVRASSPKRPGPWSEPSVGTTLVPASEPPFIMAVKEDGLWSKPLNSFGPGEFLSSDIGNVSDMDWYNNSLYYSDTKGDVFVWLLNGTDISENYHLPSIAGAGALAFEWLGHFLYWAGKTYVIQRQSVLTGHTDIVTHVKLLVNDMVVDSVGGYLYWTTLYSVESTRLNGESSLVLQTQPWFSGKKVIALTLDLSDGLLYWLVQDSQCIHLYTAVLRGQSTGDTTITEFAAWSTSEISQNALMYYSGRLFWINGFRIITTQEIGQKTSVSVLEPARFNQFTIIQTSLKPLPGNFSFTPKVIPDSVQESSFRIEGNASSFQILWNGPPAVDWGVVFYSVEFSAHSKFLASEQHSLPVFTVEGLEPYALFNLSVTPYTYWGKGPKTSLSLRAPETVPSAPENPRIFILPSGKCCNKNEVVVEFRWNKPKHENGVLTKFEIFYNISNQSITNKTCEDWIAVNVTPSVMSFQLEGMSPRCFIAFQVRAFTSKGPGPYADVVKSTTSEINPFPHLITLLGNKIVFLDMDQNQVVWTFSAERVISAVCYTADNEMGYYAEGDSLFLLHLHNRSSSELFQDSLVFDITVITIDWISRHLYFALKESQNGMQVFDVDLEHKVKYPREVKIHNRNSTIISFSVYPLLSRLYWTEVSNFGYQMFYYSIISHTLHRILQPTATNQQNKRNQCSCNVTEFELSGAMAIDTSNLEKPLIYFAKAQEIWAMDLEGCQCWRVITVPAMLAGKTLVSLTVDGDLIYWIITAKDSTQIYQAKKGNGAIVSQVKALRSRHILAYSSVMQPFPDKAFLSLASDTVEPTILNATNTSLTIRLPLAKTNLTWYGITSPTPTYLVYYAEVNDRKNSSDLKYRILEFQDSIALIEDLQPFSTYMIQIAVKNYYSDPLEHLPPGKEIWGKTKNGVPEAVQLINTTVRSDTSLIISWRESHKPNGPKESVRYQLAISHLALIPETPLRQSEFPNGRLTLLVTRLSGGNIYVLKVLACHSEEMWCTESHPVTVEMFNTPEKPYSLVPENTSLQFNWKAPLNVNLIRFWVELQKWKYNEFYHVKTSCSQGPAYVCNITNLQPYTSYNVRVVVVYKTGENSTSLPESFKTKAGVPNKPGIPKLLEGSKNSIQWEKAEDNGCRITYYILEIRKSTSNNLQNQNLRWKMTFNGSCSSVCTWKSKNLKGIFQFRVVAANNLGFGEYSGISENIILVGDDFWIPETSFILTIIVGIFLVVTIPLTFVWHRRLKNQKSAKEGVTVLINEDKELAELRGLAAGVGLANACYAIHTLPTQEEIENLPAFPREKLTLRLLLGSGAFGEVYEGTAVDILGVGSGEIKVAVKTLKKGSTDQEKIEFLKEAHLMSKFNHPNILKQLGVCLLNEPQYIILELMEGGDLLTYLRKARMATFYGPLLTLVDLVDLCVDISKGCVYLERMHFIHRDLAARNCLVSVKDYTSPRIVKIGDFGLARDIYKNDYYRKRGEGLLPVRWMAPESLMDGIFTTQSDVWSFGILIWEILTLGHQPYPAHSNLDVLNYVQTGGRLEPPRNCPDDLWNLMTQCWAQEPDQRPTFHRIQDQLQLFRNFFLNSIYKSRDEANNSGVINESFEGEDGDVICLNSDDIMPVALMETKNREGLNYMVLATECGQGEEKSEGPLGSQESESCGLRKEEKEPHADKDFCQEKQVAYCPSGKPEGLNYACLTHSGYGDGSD
How it was run: as §1

FAK(h) = FAK(h) (Homo sapiens, UniProt Q05397)
How it was run: as §1

Mnk2(h) = Mnk2(h) (Homo sapiens, UniProt Q9HBH9)
How it was run: as §1

TrkA(h) = TrkA(h) (Homo sapiens, UniProt P04629)
How it was run: as §1

MEK1(h) = MEK1(h) (Homo sapiens, UniProt Q02750)
How it was run: as §1

STK33(h) = STK33(h) (Homo sapiens, UniProt Q9BYT3)
Chain of STK33(h) (Q9BYT3 whole entry): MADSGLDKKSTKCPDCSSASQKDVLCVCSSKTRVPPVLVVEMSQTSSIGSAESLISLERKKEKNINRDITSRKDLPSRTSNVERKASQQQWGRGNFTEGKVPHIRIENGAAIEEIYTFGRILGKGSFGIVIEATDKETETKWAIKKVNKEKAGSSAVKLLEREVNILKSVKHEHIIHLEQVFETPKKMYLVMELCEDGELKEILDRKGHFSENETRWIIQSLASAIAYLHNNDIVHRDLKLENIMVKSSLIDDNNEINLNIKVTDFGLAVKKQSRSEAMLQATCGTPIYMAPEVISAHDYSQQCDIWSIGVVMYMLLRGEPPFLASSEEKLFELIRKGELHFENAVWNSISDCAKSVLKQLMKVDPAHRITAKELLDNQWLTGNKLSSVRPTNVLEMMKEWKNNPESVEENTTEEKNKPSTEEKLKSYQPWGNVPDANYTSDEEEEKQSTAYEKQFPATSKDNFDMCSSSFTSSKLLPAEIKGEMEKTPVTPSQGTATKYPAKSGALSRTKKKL
How it was run: as §1

FGFR1(V561M)(h) = FGFR1(V561M)(h) (Homo sapiens, UniProt P11362, V561M)
How it was run: as §1

| Structure (SMILES) | inhibition at 0.1 µM (Pim-3(h)) | inhibition at 0.1 µM (Fms(h)) | inhibition at 0.1 µM (IKKβ(h)) | inhibition at 0.1 µM (Met(Y1248C)(h)) | inhibition at 0.1 µM (Bmx(h)) | inhibition at 0.1 µM (CHK1(h)) | inhibition at 0.1 µM (EphA2(h)) | inhibition at 0.1 µM (Aurora-B(h)) | inhibition at 0.1 µM (ASK1(h)) | inhibition at 0.1 µM (WNK2(h)) | inhibition at 0.1 µM (PKCε(h)) | inhibition at 0.1 µM (MST1(h)) | inhibition at 0.1 µM (DAPK1(h)) | inhibition at 0.1 µM (MAPK2(m)) | inhibition at 0.1 µM (Fms(Y969C)(h)) | inhibition at 0.1 µM (ZIPK(h)) | inhibition at 0.1 µM (Aurora-C(h)) | inhibition at 0.1 µM (PKCβI(h)) | inhibition at 0.1 µM (PKCμ(h)) | inhibition at 0.1 µM (EGFR(L861Q)(h)) | other results |
| --- | --- | --- | --- | --- | --- | --- | --- | --- | --- | --- | --- | --- | --- | --- | --- | --- | --- | --- | --- | --- | --- |
| Cc1cc2c(F)c(Oc3nc(Nc4cc(C5CC5)[nH]n4)cc(N4CCN(C)CC4)n3)ccc2[nH]1 [Compound 10] | -1% | 91% | 1% | 57% | 98% | 16% | 96% | 97% | -14% | -8% | -10% | 78% | 0% | -16% | 67% | 1% | 54% | 2% | 7% | 2% | inhibition at 0.1 µM (DCAMKL2(h)): 16%; inhibition at 0.1 µM (FGFR2(N549H)(h)): 100%; inhibition at 0.1 µM (IKKα(h)): -12%; inhibition at 0.1 µM (Ron(h)): 34%; inhibition at 0.1 µM (GRK6(h)): -5%; inhibition at 0.1 µM (Ros(h)): 12%; inhibition at 0.1 µM (FAK(h)): 22%; inhibition at 0.1 µM (Mnk2(h)): 1%; inhibition at 0.1 µM (TrkA(h)): 102%; inhibition at 0.1 µM (MEK1(h)): 14%; inhibition at 0.1 µM (STK33(h)): 8%; inhibition at 0.1 µM (FGFR1(V561M)(h)): 101% |
| Cc1cc2c(F)c(Oc3nc(Nc4cc(C5CC5)[nH]n4)cc(N4CCNCC4)n3)ccc2[nH]1 [Compound 11, N-(5-cyclopropyl-1H-pyrazol-3-yl)-2-((4-fluoro-2-methyl-1H-indol-5-yl)oxy)-6-(piperazin-1-yl)pyrimidin-4-amine] | -4% | 95% | 5% | 95% | 99% | 0% | 98% | 98% | -17% | -6% | 17% | 74% | 3% | 10% | 73% | 7% | 67% | 5% | -7% | 34% | inhibition at 0.1 µM (DCAMKL2(h)): 15%; inhibition at 0.1 µM (FGFR2(N549H)(h)): 100%; inhibition at 0.1 µM (IKKα(h)): -3%; inhibition at 0.1 µM (Ron(h)): 43%; inhibition at 0.1 µM (GRK6(h)): -14%; inhibition at 0.1 µM (Ros(h)): 71%; inhibition at 0.1 µM (FAK(h)): 22%; inhibition at 0.1 µM (Mnk2(h)): -2%; inhibition at 0.1 µM (TrkA(h)): 100%; inhibition at 0.1 µM (MEK1(h)): 1%; inhibition at 0.1 µM (STK33(h)): -4%; inhibition at 0.1 µM (FGFR1(V561M)(h)): 101% |

— patent US10245261B2, “Substituted indol-5-ol derivatives and their therapeutic applications” (NantBioScience, Inc., priority 2013, dated 2019)
